Results on nine compounds are retold here after publication PMC10728220, “Novel 3-(pyrazol-4-yl)-2-(1H-indole-3-carbonyl)acrylonitrile derivatives induce intrinsic and extrinsic apoptotic death mediated P53 in HCT116 colon carcinoma” (Scientific Reports, 2023).

By IC50 is commonly meant the point on the concentration scale where inhibition reaches its midpoint. One may read the melting point as the temperature of the solid-liquid transition. The term pIC50 denotes −log10 of the IC50, conventionally taken in molar units.

Data set [1] relates to A549. More on the design: method as in doi:10.1007/s00706-021-02886-5. The following applies: cited from earlier work.
Data set [2] has as its system HepG2. More on the design: method as in doi:10.1007/s00706-021-02886-5. Conditions: cited from earlier work.
Data set [3] has as its system lung carcinoma (A549). Put plainly: Cytotoxic MTT assay, A549. Type of data set: cell-based. The following applies: Homo sapiens, 48 h treatment. The method, then:
(§1) MTT protocol was performed to study the viability of cells after treatment with the tested compounds. The studied cell lines (A549 and HCT116) were cultured and grown in RPMI‐1640 media, while HFB4 cells were reserved in DMEM‐F12 media. Both media were supplemented with 10% FBS, 1% L‐glutamine, and 1% antibiotic–antimycotic mixture. The cell lines were grown at conditions of 37 °C and 5% CO2. 10 × 10^3 of A549, and HCT116 cells and the same count of normal melanocytes (HFB4) were cultured in a 96‐well plate. The selected cultured cells were kept at 37°C and 5% CO2 overnight. Then, the medium was discarded after 24 h of incubation, and 100 µL from different concentrations of the studied compounds dissolved in fresh medium without serum, with final concentrations of 100, 50, 25, 12.5, 6.25, 3.125, 1.56, and 0.78 µg/mL was added. The treated cells were then incubated for 48 h. After that, 50 µL of MTT was added into each well for 4 h for the formazan crystals to be formed. Finally, 200 µl of 10% sodium dodecyl sulphate (SDS) was added to each well, and plates were kept at room temperature overnight to allow the reaction to be stopped. The optical density at 575 nm was read using a microplate multi-well reader, and the percentage of cell viability was calculated. The dose–response curve was drawn to calculate the IC50 values for each compound using the prism GraphPad 5 program, [84]. 5 Fluorouracil, a commercial anticancer drug was used as a reference drug (positive control). Negative untreated cell control was used in this assay.
(In general: Tetrazolium dyes change colour on reduction, which living cells bring about.)

For data set [4], the system named is colorectal carcinoma (HCT116). Put plainly: Cytotoxic MTT assay, HCT116. It is filed as cell-based, human. The following applies: Homo sapiens, HCT-116; MTT, 48 h treatment. The method, then: as §1
Data set [5] has as its system normal human skin melanocyte cell line (HFB4). Put plainly: Cytotoxic MTT assay, normal HFB4 cells. The following applies: 48 h treatment. It is filed as cell-based. As to the method:
as §1

The subject of data set [6] is MCF-7. Also on record: method as in Jumaah et al., 65. Conditions: ref Jumaah et al., 65; cited from earlier work.
Data set [7] relates to HepG2. Also on record: method as in PMID 34939695. The following applies: previous study of the authors; cited from earlier work.
Data set [8] has as its system A549. More on the design: method as in PMID 34939695. Conditions: previous study of the authors; cited from earlier work.

pIC50: −log10 of the molar value. Values after ≈ are worked out from the molar mass of the structure shown.

In the case of `Cc1ccc(C=CC(=O)c2c(C)nn(-c3ccc([N+](=O)[O-])cc3)c2C)cc1` [1-[3,5-dimethyl-1-(4-nitrophenyl)-1H-pyrazol-4-yl]-3-(p-tolyl) prop-2-en-1-one], the “IC50 A549” value in data set [1] is 44.3 µg/mL (≈ 123 µM). For the same compound, the “IC50 HepG2” value in [2] is 57.9 µg/mL (≈ 160 µM).
On to `N#C/C(=C\c1cn(-c2ccccc2)nc1-c1ccc(O)cc1)C(=O)c1c[nH]c2ccccc12` [Compound 7d, (E)-3-(3-(4-Hydroxyphenyl)-1-phenyl-1H-pyrazol-4-yl)-2-(1H-indole-3-carbonyl)acrylonitrile], for which the melting point fell in the range of 288 to 290 °C. Further, the IC50 in data set [3] is over 100 µg/mL. For the same compound, in data set [4], half-maximal inhibition (IC50) required 43 µg/mL (≈ 99.9 µM). Moreover, in data set [5], the IC50 is over 100 µg/mL.
In turn, `Cc1ccc(-c2nn(-c3ccccc3)cc2/C=C(\C#N)C(=O)c2c[nH]c3ccccc23)cc1` [Compound 7b, (E)-2-(1H-Indole-3-carbonyl)-3-(1-phenyl-3-(p-tolyl)-1H-pyrazol-4-yl)acrylonitrile] registered a melting point of 288 to 290 °C. Moreover, the IC50 in data set [3] was over 100 µg/mL. This compound had an IC50 in data set [4] of over 100 µg/mL. This compound also yielded an IC50 in data set [5] of over 100 µg/mL.
Turning to `COc1ccc2c(/C=C/C(=O)c3cc(OC)c(OC)c(OC)c3)cn(C)c2c1` [(E)-3-(6-methoxy-1-methyl-1H-indol-3-yl)-1-(3,4,5-tri-methoxyphenyl)-prop-2-en-1-one], the pIC50 in data set [6] is 4.72.
As for `COc1ccc(-c2nn(-c3ccccc3)cc2/C=C(\C#N)C(=O)c2c[nH]c3ccccc23)cc1` [Compound 7c, (E)-2-(1H-Indole-3-carbonyl)-3-(3-(4-methoxyphenyl)-1-phenyl-1H-pyrazol-4-yl)acrylonitrile], the melting point lay within 252 to 254 °C. Moreover, the IC50 in data set [3] was over 100 µg/mL. Besides, in data set [4], the IC50 is over 100 µg/mL. In addition, in data set [5], the IC50 was over 100 µg/mL.
In turn, `N#C/C(=C\c1cn(-c2ccccc2)nc1-c1ccccc1)C(=O)c1c[nH]c2ccccc12` [Compound 7a, (E)-3-(1,3-Diphenyl-1H-pyrazol-4-yl)-2-(1H-indole-3-carbonyl)acrylonitrile] yielded a melting point of 250 to 252 °C. In [3], this compound gave an IC50 of over 100 µg/mL. In [4], this compound gave an IC50 of 93.1 µg/mL (≈ 225 µM). This compound also had an IC50 in data set [5] of over 100 µg/mL.
With `O=c1[nH]cc(F)c(=O)[nH]1` [5 FU, 5-Fluorouracil, reference compound], the IC50 in data set [3] was 371 µg/mL (≈ 2850 µM); in [4] it was 77.2 µg/mL (≈ 593 µM); in [5] it was 223 µg/mL (≈ 1710 µM).
As to `N#C/C(=C\c1cn(-c2ccccc2)nc1-c1ccc(Cl)cc1)C(=O)c1c[nH]c2ccccc12` [Compound 7e, (E)-3-(3-(4-Chlorophenyl)-1-phenyl-1H-pyrazol-4-yl)-2-(1H-indole-3-carbonyl)acrylonitrile], the melting point fell in the range of 296 to 298 °C. Further, the IC50 in data set [3] was over 100 µg/mL. This compound yielded an IC50 in data set [4] of over 100 µg/mL. For the same compound, in [5], the IC50 was over 100 µg/mL.
3-(thiophen-2-yl)pyrazol-4-yl)chalcone: the pIC50 in data set [7] is 4.19; in [8], 4.18.
